Assay results published in ChEMBL document CHEMBL1201862, “PubChem BioAssay data set” (2004).
Active and inactive are the calls of the source.

Columns and labels:
[1] = target: T1, Kappa-type opioid receptor (Homo sapiens, UniProt P41145); type: functional
[2] = target: T2, Delta-type opioid receptor (Homo sapiens, UniProt P41143); assay: HTS Image-Based Screen for Agonists of the DOR Receptor. [Related pubchem assays (depositor defined):AID1777, AID1786, AID2133]; type: functional
[3] = target: T1, Kappa-type opioid receptor; type: functional; remark: listed apart in the source
[4] = target: T2, Delta-type opioid receptor; assay: HTS Image-Based Screen for Antagonists of the DOR Receptor. [Related pubchem assays (depositor defined):AID1777, AID1785, AID1786, AID2133]; type: functional
Mu-type opioid receptor = Mu-type opioid receptor (Homo sapiens, UniProt P35372); assay: HTS Image-Based Screen for Agonists of the MOR Receptor. [Related pubchem assays (depositor defined):AID1777, AID1785, AID1786, AID2133]; type: functional;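 further: imaging of beta-arrestin GFP recruitment into spots after receptor activation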
[5] = target: T3, Intestinal-type alkaline phosphatase (Homo sapiens, UniProt P09923); assay: Dose Response confirmation of uHTS hits from a small molecule inhibitors of human intestinal alkaline phosphatase via a luminescent assay. [Related pubchem assays (depositor defined):AID2544, AID2574]; type: functional
[6] = target: T3, Intestinal-type alkaline phosphatase; assay: human intestinal alkaline phosphatase activators, dose response, biochemical, luminescence, uHTS hits (AID 463120); type: functional
[7] = target: Intestinal-type alkaline phosphatase (Mus musculus, UniProt P24822); assay: PubChem AID 488785; type: functional
[8] = target: T4, Alkaline phosphatase, tissue-nonspecific isozyme (Homo sapiens, UniProt P05186); assay: TNAP enzyme inhibition by screening hits, dose response, selectivity assay for mouse IAP inhibitor project, biochemical, human TNAP, uHTS hits (AID 488906); type: functional
T4 sequence (P05186 whole entry): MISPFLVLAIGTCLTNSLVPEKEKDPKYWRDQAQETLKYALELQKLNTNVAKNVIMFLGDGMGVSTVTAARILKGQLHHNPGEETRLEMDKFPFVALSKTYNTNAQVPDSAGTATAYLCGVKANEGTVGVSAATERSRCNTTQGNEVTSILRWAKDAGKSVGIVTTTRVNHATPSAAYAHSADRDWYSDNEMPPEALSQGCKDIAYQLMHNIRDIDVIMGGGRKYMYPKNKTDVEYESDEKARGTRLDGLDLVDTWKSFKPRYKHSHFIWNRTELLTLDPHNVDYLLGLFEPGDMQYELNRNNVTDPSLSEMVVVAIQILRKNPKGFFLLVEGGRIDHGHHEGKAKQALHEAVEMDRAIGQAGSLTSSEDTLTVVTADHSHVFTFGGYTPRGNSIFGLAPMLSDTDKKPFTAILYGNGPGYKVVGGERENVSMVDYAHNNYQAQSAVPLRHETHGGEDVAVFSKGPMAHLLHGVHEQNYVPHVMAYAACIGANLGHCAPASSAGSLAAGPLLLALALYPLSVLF

[9] = target: T3, Intestinal-type alkaline phosphatase; assay: inhibition of human intestinal alkaline phosphatase – biochemical, dose response (AID 488876); type: functional
Cannabinoid receptor 1 [10] = target: T5, Cannabinoid receptor 1 (Homo sapiens, UniProt P21554); assay: SAR analysis of antagonists of the Cannabinoid Receptor 1 using an Image-Based Assay - Set 2. [Related pubchem assays (depositor defined):AID2013, AID2026]; type: functional
Cannabinoid receptor 1 [11] = target: T5, Cannabinoid receptor 1; assay: SAR analysis of agonists of the Cannabinoid Receptor 1 using an Image-Based Assay - Set 2. [Related pubchem assays (depositor defined):AID2013, AID2026]; type: functional
[12] = target: T6, G-protein coupled receptor 35 (Homo sapiens, UniProt Q9HC97); assay: SAR analysis of Antagonists of the GPR35 Receptor using an Image-Based Assay - Set 3. [Related pubchem assays (depositor defined):AID2013, AID2026]; type: functional
[13] = target: T7, G-protein coupled receptor 55 (Homo sapiens, UniProt Q9Y2T6); assay: GPR55 antagonists blocking LPI-driven arrestin recruitment, primary screen, imaging, U2OS, beta-arrestin-GFP, LPI agonist (AID 2013); type: functional;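 further: antagonist potency measured as reduced agonist-driven arrestin aggregation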
[14] = target: T7, G-protein coupled receptor 55; assay: GPR55 antagonist potency of analogs, SAR follow-up, imaging, U2OS, beta-arrestin-GFP, LPI agonist, set 2 (AID 2820); type: functional
Cannabinoid receptor 2 [15] = target: T8, Cannabinoid receptor 2 (Homo sapiens, UniProt P34972); assay: SAR analysis of antagonists of the Cannabinoid Receptor 2 using an Image-Based Assay. [Related pubchem assays (depositor defined):AID2013, AID2026]; type: functional
Cannabinoid receptor 2 [16] = target: T8, Cannabinoid receptor 2; assay: SAR analysis of agonists of the Cannabinoid Receptor 2 using an Image-Based Assay. [Related pubchem assays (depositor defined):AID2013, AID2026]; type: functional
[17] = target: T6, G-protein coupled receptor 35; assay: SAR analysis of Agonists of the GPR35 Receptor using an Image-Based Assay - Set 2. [Related pubchem assays (depositor defined):AID2013, AID2026]; type: functional
Protein RecA = target: T9, Protein RecA (Mycobacterium tuberculosis, UniProt P9WHJ3); assay: Fluorescence Cell-Free Homogeneous Dose Retest to Identify Inhibitors of RecA-Intein Splicing Activity. [Related pubchem assays (depositor defined):AID2097, AID2223, AID489010, AID492950]; type: functional
T9 sequence (P9WHJ3 whole entry): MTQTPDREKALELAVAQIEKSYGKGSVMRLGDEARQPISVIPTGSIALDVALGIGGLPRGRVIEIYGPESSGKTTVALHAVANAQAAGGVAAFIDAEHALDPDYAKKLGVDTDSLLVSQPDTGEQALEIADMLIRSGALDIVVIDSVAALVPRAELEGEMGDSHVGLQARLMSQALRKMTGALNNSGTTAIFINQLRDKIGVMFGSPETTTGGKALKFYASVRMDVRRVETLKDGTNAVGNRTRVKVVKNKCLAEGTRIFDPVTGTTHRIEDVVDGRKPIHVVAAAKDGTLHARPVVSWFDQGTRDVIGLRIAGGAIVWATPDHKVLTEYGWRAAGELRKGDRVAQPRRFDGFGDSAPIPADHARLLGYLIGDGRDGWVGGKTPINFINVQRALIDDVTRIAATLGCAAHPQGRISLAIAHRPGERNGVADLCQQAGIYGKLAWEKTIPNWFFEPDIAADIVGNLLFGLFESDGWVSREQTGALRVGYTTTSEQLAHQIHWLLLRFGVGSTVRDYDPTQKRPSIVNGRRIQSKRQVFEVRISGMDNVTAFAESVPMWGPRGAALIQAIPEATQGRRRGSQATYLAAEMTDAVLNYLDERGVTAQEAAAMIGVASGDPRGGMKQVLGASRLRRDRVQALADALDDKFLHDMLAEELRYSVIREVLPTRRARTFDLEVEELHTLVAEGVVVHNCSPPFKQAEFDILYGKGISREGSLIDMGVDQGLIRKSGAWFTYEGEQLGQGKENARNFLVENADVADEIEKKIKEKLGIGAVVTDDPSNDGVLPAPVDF

SUMO-activating enzyme [18] = target: T10, SUMO-activating enzyme (Homo sapiens, UniProt Q9UBT2); assay: inhibitors of in vitro SUMOylation cascade, primary screen, biochemical, HTRF, uHTS (AID 2006); type: protein-complex assay
SUMO-activating enzyme [19] = target: T10, SUMO-activating enzyme; assay: SUMOylation inhibitor hit validation, confirmation, SUMOylation inhibitor project, biochemical, AlphaScreen (AID 2018); type: functional
Genome polyprotein = Genome polyprotein (dengue virus type 2, UniProt P29990); assay: Dengue-2 NS5 methyltransferase inhibitors, primary screen, biochemical, confirmation dose response (AID 588689); type: functional
[20] = target: T11, Replicative DNA helicase DnaB (Mycobacterium tuberculosis, UniProt P9WMR3); assay: DnaB intein splicing inhibitors, dose response, biochemical, cell-free fluorescence (AID 449749); type: functional
T11 sequence (P9WMR3 whole entry): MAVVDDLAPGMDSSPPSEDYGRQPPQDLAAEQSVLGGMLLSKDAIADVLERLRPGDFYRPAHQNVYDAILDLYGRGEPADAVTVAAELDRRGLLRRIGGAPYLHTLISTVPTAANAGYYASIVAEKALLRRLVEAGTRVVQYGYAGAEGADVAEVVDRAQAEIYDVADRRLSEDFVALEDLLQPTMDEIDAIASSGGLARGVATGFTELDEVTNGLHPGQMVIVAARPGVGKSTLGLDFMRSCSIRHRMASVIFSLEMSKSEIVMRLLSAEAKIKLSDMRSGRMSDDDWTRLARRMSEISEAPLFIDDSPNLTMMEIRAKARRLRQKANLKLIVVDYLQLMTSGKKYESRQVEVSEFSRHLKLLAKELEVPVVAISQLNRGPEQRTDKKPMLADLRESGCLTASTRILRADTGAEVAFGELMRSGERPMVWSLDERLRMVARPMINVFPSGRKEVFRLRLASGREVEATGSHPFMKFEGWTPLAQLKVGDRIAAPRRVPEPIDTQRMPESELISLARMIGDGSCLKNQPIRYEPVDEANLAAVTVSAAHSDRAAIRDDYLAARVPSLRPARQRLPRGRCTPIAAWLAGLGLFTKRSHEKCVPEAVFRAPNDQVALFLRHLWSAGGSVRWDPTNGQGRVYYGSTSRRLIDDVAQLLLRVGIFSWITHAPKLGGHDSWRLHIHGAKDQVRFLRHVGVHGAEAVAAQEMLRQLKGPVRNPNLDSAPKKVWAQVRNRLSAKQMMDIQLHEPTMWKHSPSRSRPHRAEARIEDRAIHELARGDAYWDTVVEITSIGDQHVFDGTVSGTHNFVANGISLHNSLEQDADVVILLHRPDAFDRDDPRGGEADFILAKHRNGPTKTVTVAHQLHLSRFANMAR

Apelin receptor = Apelin receptor (Homo sapiens, UniProt P35414); assay: APJ beta-arrestin recruitment antagonism, SAR follow-up, selectivity assay for CCR6 antagonist project, cell-based, luminescent, enzyme-fragment complementation (AID 588359); type: functional
Beta-galactosidase = Beta-galactosidase (Escherichia coli, UniProt Q8VNN2); assay: beta-galactosidase enzyme inhibitors and activators, dose response, artefact control for CCR6 antagonist project, biochemical, E. coli enzyme, set 3 (AID 504712); type: functional
INS1 = assay: beta cell apoptosis inhibitors, cytokine rescue, dose response, luminescence, retest (AID 449756); type: functional, cell-based; conditions: Rattus norvegicus;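 further: cell death triggered by IL-1 beta plus TNF-alpha plus IFN-gamma mixture; protective hits raise ATP signal compared with cytokine alone wells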
[21] = inhibitors of SNCA 5'UTR-driven reporter translation, confirmation, H4 neuroglioma cells, luminescence (AID 1988); type: functional, cell-based
[22] = inhibitors of firefly luciferase expression or activity, dose response, H4 neuroglioma cells, luminescence (AID 1990); type: functional, cell-based
[23] = target: Lysine-specific demethylase 4C (Homo sapiens, UniProt Q9H3R0); assay: GASC-1 (JMJD2C) histone demethylase inhibitors, dose response, biochemical, DELFIA europium, cherry-picked samples (AID 488835); type: functional
[24] = Luminescence Cell-Based Dose Response HTS to Identify Inhibitors of 5'UTR Stem-Loop Driven Prion Protein mRNA Translation in H4 Neuroglioblastoma Cells. [Related pubchem assays: 1827 (Project Summary), 1813 (Primary HTS)]; type: functional

T3 sequence (P09923 whole entry): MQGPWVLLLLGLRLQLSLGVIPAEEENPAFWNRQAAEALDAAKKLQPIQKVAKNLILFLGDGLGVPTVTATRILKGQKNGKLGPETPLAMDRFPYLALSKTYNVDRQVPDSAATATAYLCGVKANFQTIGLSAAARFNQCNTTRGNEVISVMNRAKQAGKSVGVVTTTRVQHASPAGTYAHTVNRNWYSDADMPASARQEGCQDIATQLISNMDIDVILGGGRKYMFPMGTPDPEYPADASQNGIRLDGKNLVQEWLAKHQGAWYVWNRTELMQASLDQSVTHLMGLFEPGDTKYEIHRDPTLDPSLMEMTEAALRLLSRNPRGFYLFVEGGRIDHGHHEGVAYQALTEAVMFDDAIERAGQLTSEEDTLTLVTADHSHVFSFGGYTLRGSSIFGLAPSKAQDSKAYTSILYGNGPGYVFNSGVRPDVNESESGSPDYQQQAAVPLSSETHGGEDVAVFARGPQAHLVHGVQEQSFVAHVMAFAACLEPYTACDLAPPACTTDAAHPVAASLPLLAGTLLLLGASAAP
T10 sequence (Q9UBE0 whole entry): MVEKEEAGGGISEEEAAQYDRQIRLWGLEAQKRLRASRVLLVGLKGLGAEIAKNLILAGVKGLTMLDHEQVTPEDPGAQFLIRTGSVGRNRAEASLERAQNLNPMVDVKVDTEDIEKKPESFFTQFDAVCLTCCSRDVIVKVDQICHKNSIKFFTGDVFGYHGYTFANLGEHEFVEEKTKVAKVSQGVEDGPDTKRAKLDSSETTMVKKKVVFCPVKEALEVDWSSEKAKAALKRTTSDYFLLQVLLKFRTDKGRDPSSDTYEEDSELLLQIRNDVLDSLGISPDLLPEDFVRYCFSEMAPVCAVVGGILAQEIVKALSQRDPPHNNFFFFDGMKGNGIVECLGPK
T10 sequence (Q9UBT2 whole entry): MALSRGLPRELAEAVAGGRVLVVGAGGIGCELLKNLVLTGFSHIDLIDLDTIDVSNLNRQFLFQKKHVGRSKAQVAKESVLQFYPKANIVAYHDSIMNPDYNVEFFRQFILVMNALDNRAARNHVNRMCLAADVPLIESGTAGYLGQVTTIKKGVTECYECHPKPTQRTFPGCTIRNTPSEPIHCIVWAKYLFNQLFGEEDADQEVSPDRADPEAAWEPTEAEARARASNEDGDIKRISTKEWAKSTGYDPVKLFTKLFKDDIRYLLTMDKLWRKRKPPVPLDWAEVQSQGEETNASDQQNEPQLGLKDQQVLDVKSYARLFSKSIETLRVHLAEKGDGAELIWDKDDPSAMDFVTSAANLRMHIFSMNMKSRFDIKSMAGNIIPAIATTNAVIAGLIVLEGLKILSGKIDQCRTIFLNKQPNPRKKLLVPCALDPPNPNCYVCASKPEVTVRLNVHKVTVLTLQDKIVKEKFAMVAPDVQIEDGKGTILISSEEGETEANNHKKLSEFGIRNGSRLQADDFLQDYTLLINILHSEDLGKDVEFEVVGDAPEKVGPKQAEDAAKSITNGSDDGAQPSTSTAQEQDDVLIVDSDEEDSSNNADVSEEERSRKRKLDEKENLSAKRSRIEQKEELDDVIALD
T5 sequence (P21554 whole entry): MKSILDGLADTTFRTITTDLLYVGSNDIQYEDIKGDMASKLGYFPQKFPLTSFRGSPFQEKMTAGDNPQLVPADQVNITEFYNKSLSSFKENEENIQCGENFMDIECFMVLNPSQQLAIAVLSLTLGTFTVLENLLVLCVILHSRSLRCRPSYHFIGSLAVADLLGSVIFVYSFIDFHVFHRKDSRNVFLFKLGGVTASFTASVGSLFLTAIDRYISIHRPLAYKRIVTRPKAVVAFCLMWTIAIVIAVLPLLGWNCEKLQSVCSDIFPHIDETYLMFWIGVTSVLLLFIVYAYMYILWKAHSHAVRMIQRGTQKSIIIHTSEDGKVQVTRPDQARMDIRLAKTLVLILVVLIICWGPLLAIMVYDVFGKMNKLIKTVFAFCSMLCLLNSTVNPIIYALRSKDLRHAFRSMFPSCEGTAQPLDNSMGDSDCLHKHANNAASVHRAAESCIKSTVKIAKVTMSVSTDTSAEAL
T2 sequence (P41143 whole entry): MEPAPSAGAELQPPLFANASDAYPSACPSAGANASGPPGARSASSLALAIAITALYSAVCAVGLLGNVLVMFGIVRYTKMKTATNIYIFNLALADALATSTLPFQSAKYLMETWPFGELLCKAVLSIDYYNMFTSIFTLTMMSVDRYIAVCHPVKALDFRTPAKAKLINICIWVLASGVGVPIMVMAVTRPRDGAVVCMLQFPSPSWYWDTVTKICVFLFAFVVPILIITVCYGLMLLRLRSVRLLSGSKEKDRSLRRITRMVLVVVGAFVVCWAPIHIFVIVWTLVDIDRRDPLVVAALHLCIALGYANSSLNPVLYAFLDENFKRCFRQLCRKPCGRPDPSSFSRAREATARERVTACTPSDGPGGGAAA
T1 sequence (P41145 whole entry): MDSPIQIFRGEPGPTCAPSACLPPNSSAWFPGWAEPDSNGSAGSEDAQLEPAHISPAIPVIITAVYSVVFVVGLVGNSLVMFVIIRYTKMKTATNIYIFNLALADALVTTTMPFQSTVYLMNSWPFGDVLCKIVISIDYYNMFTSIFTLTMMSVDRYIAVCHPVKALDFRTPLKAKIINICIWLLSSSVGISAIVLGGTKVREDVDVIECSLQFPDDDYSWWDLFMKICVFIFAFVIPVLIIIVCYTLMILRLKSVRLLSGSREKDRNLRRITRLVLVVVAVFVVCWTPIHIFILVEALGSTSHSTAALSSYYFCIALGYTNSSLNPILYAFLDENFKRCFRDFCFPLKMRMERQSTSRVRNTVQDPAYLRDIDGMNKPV
T7 sequence (Q9Y2T6 whole entry): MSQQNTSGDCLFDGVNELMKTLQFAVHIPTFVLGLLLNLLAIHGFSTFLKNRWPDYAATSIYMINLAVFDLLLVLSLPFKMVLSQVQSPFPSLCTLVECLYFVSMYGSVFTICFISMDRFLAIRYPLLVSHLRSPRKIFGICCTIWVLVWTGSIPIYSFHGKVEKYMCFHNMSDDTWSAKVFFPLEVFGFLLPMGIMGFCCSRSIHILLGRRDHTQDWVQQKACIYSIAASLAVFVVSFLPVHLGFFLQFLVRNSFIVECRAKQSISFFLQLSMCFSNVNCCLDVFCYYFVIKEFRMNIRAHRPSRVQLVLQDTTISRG
T8 sequence (P34972 whole entry): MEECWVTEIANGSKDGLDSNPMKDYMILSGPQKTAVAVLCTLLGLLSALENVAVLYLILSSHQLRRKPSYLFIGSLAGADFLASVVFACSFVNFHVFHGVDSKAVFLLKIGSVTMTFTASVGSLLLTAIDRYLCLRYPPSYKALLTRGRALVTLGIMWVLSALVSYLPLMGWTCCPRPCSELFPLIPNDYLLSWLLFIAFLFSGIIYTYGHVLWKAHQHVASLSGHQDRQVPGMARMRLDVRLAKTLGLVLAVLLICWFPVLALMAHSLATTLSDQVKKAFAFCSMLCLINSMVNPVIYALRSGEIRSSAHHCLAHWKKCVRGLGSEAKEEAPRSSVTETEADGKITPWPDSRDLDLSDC
T6 sequence (Q9HC97 whole entry): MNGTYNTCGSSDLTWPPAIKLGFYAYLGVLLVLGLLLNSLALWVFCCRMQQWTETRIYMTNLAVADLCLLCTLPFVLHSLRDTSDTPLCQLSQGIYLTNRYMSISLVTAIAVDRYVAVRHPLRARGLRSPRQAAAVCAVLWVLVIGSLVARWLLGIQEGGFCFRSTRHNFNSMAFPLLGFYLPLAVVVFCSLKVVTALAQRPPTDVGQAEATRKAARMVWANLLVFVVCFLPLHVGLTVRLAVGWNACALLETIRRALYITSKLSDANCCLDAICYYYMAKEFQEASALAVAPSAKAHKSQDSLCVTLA
Sequence of Mu-type opioid receptor (P35372 whole entry): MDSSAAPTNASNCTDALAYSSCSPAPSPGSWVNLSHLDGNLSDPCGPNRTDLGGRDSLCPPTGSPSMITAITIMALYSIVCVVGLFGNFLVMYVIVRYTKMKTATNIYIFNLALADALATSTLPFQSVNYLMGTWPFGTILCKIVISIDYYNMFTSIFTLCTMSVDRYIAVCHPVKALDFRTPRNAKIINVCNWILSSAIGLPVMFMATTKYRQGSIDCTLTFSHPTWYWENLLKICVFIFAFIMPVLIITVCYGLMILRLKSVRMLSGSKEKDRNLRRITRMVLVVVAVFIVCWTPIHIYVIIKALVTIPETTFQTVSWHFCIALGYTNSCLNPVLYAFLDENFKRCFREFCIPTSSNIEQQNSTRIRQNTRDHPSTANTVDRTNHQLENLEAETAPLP
Sequence of Intestinal-type alkaline phosphatase (Mus musculus, UniProt P24822) (P24822 whole entry): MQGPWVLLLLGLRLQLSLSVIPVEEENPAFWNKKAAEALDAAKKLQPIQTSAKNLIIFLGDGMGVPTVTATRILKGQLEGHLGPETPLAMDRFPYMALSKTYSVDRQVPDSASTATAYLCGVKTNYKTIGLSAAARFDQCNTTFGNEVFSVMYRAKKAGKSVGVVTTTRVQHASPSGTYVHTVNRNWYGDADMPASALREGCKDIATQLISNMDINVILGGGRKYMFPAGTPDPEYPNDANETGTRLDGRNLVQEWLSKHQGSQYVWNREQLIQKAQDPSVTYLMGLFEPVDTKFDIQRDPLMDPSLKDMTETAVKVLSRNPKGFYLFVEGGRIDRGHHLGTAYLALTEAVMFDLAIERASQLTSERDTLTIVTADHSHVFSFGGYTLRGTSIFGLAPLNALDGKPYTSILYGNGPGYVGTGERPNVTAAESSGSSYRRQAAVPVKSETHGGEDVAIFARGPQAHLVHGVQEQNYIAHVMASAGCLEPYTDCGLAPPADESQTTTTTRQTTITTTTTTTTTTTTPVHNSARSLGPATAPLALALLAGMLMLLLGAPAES

**Q.** Which results are given for `COc1ccc(C[C@@H]2CN3C(=NC[C@@H]3C)N2CCNC(=O)c2ccc(C)c(Br)c2)cc1`?
**A.** EC50 [1]: 0.118 µM; EC50 [2]: > 32 µM (inactive); EC50 [3]: < 0.5 µM; IC50 [4]: > 32 µM (inactive); EC50 (Mu-type opioid receptor): > 32 µM (inactive)

**Q.** Which results are given for `CN1CCN(CCNC(=O)Cn2c(=O)c3cccn3c3ccc(F)cc32)CC1`?
**A.** IC50 [5]: > 100 µM (inactive); EC50 [6]: > 100 µM (inactive)

**Q.** Which IC50 [7] does the source give for `CCOC(=O)c1ccc(N2CCN(c3ccccc3F)CC2)c(NC(=O)Nc2ccccc2)c1` here?
**A.** 8.66 µM (active)

**Q.** And the IC50 [8]?
**A.** > 100 µM (inactive)

**Q.** And the IC50 [9]?
**A.** > 100 µM (inactive)

**Q.** Which results are given for `Cc1ccc2c(c1)C(c1ccc(O)cc1)(c1ccc(O)cc1)C(=O)N2C`?
**A.** IC50 (Cannabinoid receptor 1 [10]): 5.74 µM (active); EC50 (Cannabinoid receptor 1 [11]): > 32 µM (inactive); IC50 [12]: > 32 µM (inactive); IC50 [13]: 1.57 µM (active); IC50 [14]: 1 µM (active); IC50 (Cannabinoid receptor 2 [15]): > 32 µM (inactive); EC50 (Cannabinoid receptor 2 [16]): > 32 µM (inactive); EC50 [17]: > 32 µM (inactive)

**Q.** For `COc1cc(/C=C2\C(=O)N(c3ccc(S(N)(=O)=O)cc3)N=C2C)ccc1OC(=O)c1ccco1`, which EC50 (Protein RecA) is on record?
**A.** 23.8 µM (active)

**Q.** And the IC50 (SUMO-activating enzyme [18])?
**A.** > 100 µM (inactive)

**Q.** What about the IC50 (SUMO-activating enzyme [19]) of the same molecule?
**A.** 6.36 µM (active)

**Q.** And the IC50 (Genome polyprotein)?
**A.** 73.2 µM (active)

**Q.** What about the AC50 [20] of the same molecule?
**A.** > 380 µM (inactive)

**Q.** Which results are given for `CC(C)(C)c1ccc2c(c1)OC(C(=O)N/N=C\c1ccccn1)CO2` (stereo not given)?
**A.** IC50 (Apelin receptor): 28.8 µM (inactive); IC50 (Beta-galactosidase): > 66.6 µM (inactive)

**Q.** For `O=C(CNC(=O)c1ccccc1O)N/N=C/c1cc(Br)ccc1OC(=O)/C=C/c1ccco1`, which AC50 (INS1) is on record?
**A.** 3.13 µM (active)

**Q.** And the EC50 [21]?
**A.** 9.47 µM (active)

**Q.** What about the EC50 [22] of the same molecule?
**A.** 10.7 µM (active)

**Q.** What about the AC50 [23] of the same molecule?
**A.** 10.8 µM (active)

**Q.** And the EC50 [24]?
**A.** 7.28 µM (active)
